Data taken from ChEMBL document CHEMBL3580564, “Semisynthetic Studies on and Biological Evaluation of N-Methyllaurotetanine Analogues as Ligands for 5-HT Receptors” (J Nat Prod, 2015).
Values belong to the compound of their own block, whether it stands above or below them.

How the values were obtained:
Homo sapiens [1] = organism: Homo sapiens; assay: Selectivity index, ratio of Ki for human recombinant 5-HT1A receptor to Ki for human recombinant 5-HT7 receptor
Homo sapiens [2] = organism: Homo sapiens; assay: Selectivity index, ratio of Ki for human recombinant 5-HT2A receptor to Ki for human recombinant 5-HT7 receptor
[3] = biological target: 5-hydroxytryptamine receptor 7 (Homo sapiens, UniProt P34969); assay: Displacement of [3H]LSD from human recombinant 5-HT7 receptor expressed in HEK cell membranes by radioligand binding assay; design: species or system HEK293
[4] = biological target: T1, 5-hydroxytryptamine receptor 1A (Homo sapiens, UniProt P08908); assay: Displacement of [3H]Way100635 from human recombinant 5-HT1A receptor expressed in CHO cell membranes by radioligand binding assay
T1 sequence (P08908 whole entry): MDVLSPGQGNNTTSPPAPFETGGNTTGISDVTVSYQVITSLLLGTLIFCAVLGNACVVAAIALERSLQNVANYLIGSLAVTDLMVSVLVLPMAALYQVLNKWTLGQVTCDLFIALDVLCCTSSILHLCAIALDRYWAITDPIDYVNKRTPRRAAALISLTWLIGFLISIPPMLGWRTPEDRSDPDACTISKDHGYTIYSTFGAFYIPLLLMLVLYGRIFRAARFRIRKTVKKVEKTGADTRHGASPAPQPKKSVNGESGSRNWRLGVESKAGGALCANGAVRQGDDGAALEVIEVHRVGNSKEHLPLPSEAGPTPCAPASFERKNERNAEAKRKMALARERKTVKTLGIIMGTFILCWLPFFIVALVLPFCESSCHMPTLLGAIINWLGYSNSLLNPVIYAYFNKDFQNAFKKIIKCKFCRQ

[5] = biological target: 5-hydroxytryptamine receptor 2A (Homo sapiens, UniProt P28223); assay: Displacement of [3H]ketanserin from human recombinant 5-HT2A receptor expressed in HEKT cell membranes by radioligand binding assay; type: cell-based
[6] = biological target: Mu-type opioid receptor (Homo sapiens) (UniProt P35372); assay: Displacement of [3H]DAMGO from human recombinant MOR expressed in HEK cell membranes by radioligand binding assay; details: HEK293, concentration not given here
[7] = biological target: Translocator protein (Rattus norvegicus) (UniProt P16257); assay: Displacement of [3H]PK11195 from rat brain PBR by radioligand binding assay; details: concentration not given here
[8] = biological target: Sigma non-opioid intracellular receptor 1 (Cavia porcellus) (UniProt Q60492); assay: Binding affinity to guinea pig sigma1 receptor by radioligand binding assay; details: concentration not given here
Sigma 2 receptor = assay: Displacement of [3H]DTG from human recombinant sigma2 receptor by radioligand binding assay; details: concentration not given here
[9] = biological target: 5-hydroxytryptamine receptor 2C (Homo sapiens, UniProt P28335); assay: Displacement of [3H]mesulergine from human recombinant 5-HT2C receptor expressed in Flp-IN HEK cell membranes by radioligand binding assay; design: species or system HEK293
[10] = biological target: Alpha-1B adrenergic receptor (Homo sapiens, UniProt P35368); assay: Displacement of [3H]prazosin from human recombinant adrenergic alpha1B receptor expressed in HEKT cell membranes by radioligand binding assay
[11] = biological target: Alpha-2C adrenergic receptor (Homo sapiens, UniProt P18825); assay: Displacement of [3H]rauwolscine from human recombinant adrenergic alpha2C receptor expressed in MDCK cell membranes by radioligand binding assay
[12] = biological target: Beta-2 adrenergic receptor (Homo sapiens, UniProt P07550); assay: Displacement of [3H]CGP12177 from human recombinant adrenergic beta2 receptor expressed in CHO Flp-In cell membranes by radioligand binding assay
D(3) dopamine receptor = D(3) dopamine receptor (Homo sapiens, UniProt P35462); assay: Displacement of [3H]N-methylspiperone from human recombinant dopamine D3 receptor expressed in HEKT cell membranes by radioligand binding assay
[13] = biological target: Sodium-dependent dopamine transporter (Homo sapiens, UniProt Q01959); assay: Displacement of [3H]WIN35428 from human recombinant DAT expressed in HEK cell membranes by radioligand binding assay; design: species or system HEK293
[14] = biological target: Sodium-dependent noradrenaline transporter (Homo sapiens, UniProt P23975); assay: Displacement of [3H]nisoxetine from human recombinant NET expressed in HEK cell membranes by radioligand binding assay; design: species or system HEK293
[15] = biological target: Sodium-dependent serotonin transporter (Homo sapiens, UniProt P31645); assay: Displacement of [3H]citalopram from human recombinant SERT expressed in HEK cell membranes by radioligand binding assay; design: species or system HEK293
[16] = biological target: 5-hydroxytryptamine receptor 1E (Homo sapiens) (UniProt P28566); assay: Displacement of [3H]5-HT from human recombinant 5-HT1E receptor expressed in HEK cell membranes by radioligand binding assay; details: HEK293, concentration not given here
D(1A) dopamine receptor = D(1A) dopamine receptor (Homo sapiens, UniProt P21728); assay: Displacement of [3H]SCH23390 from human recombinant dopamine D1 receptor expressed in HEKT cell membranes by radioligand binding assay
[17] = biological target: 5-hydroxytryptamine receptor 6 (Homo sapiens, UniProt P50406); assay: Displacement of [3H]LSD from human recombinant 5-HT6 receptor expressed in HEK cell membranes by radioligand binding assay; design: species or system HEK293
[18] = biological target: 5-hydroxytryptamine receptor 5A (Homo sapiens, UniProt P47898); assay: Displacement of [3H]LSD from human recombinant 5-HT5A receptor expressed in Flp-In CHO cell membranes by radioligand binding assay
[19] = biological target: 5-hydroxytryptamine receptor 2B (Homo sapiens, UniProt P41595); assay: Displacement of [3H]LSD from human recombinant 5-HT2B receptor expressed in HEK cell membranes by radioligand binding assay; design: species or system HEK293
[20] = biological target: 5-hydroxytryptamine receptor 3A (Homo sapiens) (UniProt P46098); assay: Displacement of [3H]GR65630 from human recombinant 5-HT3 receptor expressed in HEKT cell membranes by radioligand binding assay; details: concentration not given here
[21] = biological target: Alpha-1A adrenergic receptor (Homo sapiens) (UniProt P35348); assay: Displacement of [3H]prazosin from human recombinant adrenergic alpha1A receptor by radioligand binding assay; details: concentration not given here
[22] = biological target: Alpha-1D adrenergic receptor (Homo sapiens) (UniProt P25100); assay: Displacement of [3H]prazosin from human recombinant adrenergic alpha1D receptor by radioligand binding assay; details: concentration not given here
[23] = biological target: Alpha-2B adrenergic receptor (Homo sapiens) (UniProt P18089); assay: Displacement of [3H]rauwolscine from human recombinant adrenergic alpha2B receptor expressed in HEKT cell membranes by radioligand binding assay; details: concentration not given here
Rattus norvegicus [24] = organism: Rattus norvegicus; assay: Displacement of [3H]flunitrazepam from rat brain benzodiazepine receptor by radioligand binding assay; details: concentration not given here
[25] = biological target: D(2) dopamine receptor (Homo sapiens) (UniProt P14416); assay: Displacement of [3H]N-methylspiperone from human recombinant dopamine D2 receptor expressed in fibroblasts cell membranes by radioligand binding assay; details: Fibroblast, concentration not given here
[26] = biological target: D(4) dopamine receptor (Homo sapiens) (UniProt P21917); assay: Displacement of [3H]N-methylspiperone from human recombinant dopamine D4 receptor by radioligand binding assay; details: concentration not given here
[27] = biological target: D(1B) dopamine receptor (Homo sapiens) (UniProt P21918); assay: Displacement of [3H]SCH23390 from human recombinant dopamine D5 receptor expressed in HEKT cell membranes by radioligand binding assay; details: concentration not given here
[28] = biological target: Delta-type opioid receptor (Homo sapiens) (UniProt P41143); assay: Displacement of [3H]DADLE from human recombinant DOR expressed in HEK cell membranes by radioligand binding assay; details: HEK293, concentration not given here
Rattus norvegicus [29] = organism: Rattus norvegicus; assay: Displacement of [3H]muscimol from rat brain GABAA receptor by radioligand binding assay; details: concentration not given here
[30] = biological target: Histamine H1 receptor (Homo sapiens) (UniProt P35367); assay: Displacement of [3H]pyrilamine from human recombinant histamine H1 receptor expressed in HEK cell membranes by radioligand binding assay; details: HEK293, concentration not given here
[31] = biological target: Histamine H3 receptor (Homo sapiens) (UniProt Q9Y5N1); assay: Displacement of [3H]alpha-methylhistamine from human recombinant histamine H3 receptor expressed in HEKFlp-In cell membranes by radioligand binding assay; details: concentration not given here
[32] = biological target: Histamine H4 receptor (Homo sapiens) (UniProt Q9H3N8); assay: Displacement of [3H]histamine from human recombinant histamine H4 receptor by radioligand binding assay; details: concentration not given here
[33] = biological target: Kappa-type opioid receptor (Homo sapiens) (UniProt P41145); assay: Displacement of [3H]U69593 from human recombinant KOR expressed in HEK cell membranes by radioligand binding assay; details: HEK293, concentration not given here
[34] = biological target: Muscarinic acetylcholine receptor M1 (Homo sapiens) (UniProt P11229); assay: Displacement of [3H]QNB/[3H]]NMS from human recombinant muscarinic M1 receptor expressed in CHO cell membranes by radioligand binding assay; details: concentration not given here
[35] = biological target: Muscarinic acetylcholine receptor M2 (Homo sapiens) (UniProt P08172); assay: Displacement of [3H]QNB/[3H]]NMS from human recombinant muscarinic M2 receptor expressed in CHO cell membranes by radioligand binding assay; details: concentration not given here
[36] = biological target: Muscarinic acetylcholine receptor M3 (Homo sapiens) (UniProt P20309); assay: Displacement of [3H]QNB/[3H]]NMS from human recombinant muscarinic M3 receptor expressed in CHO cell membranes by radioligand binding assay; details: concentration not given here
[37] = biological target: Muscarinic acetylcholine receptor M4 (Homo sapiens) (UniProt P08173); assay: Displacement of [3H]QNB/[3H]]NMS from human recombinant muscarinic M4 receptor expressed in CHO cell membranes by radioligand binding assay; details: concentration not given here
[38] = biological target: Muscarinic acetylcholine receptor M5 (Homo sapiens) (UniProt P08912); assay: Displacement of [3H]QNB/[3H]]NMS from human recombinant muscarinic M5 receptor expressed in CHO cell membranes by radioligand binding assay; details: concentration not given here
[39] = biological target: T2, 5-hydroxytryptamine receptor 1A (Homo sapiens) (UniProt P08908); assay: Potency index, ratio of Ki for N-Methyllaurotetanine to Ki for test compound against human recombinant 5-HT1A receptor expressed in CHO cell membranes by radioligand binding assay
T2 sequence (whole entry): T1 sequence (P08908 whole entry)

5-hydroxytryptamine receptor 2A, sequence (P28223 whole entry): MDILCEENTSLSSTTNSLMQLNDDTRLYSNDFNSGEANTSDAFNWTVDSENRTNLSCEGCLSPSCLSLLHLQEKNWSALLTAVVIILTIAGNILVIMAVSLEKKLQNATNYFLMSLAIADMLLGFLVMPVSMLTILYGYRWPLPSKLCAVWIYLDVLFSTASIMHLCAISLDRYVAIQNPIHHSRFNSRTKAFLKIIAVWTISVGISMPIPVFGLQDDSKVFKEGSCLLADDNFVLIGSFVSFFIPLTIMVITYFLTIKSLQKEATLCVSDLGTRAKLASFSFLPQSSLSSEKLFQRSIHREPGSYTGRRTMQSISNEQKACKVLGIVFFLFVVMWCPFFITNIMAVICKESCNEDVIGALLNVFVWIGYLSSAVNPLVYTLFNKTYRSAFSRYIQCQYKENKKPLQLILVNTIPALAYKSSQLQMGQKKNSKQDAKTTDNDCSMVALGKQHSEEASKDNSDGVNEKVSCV
5-hydroxytryptamine receptor 7, sequence (P34969 whole entry): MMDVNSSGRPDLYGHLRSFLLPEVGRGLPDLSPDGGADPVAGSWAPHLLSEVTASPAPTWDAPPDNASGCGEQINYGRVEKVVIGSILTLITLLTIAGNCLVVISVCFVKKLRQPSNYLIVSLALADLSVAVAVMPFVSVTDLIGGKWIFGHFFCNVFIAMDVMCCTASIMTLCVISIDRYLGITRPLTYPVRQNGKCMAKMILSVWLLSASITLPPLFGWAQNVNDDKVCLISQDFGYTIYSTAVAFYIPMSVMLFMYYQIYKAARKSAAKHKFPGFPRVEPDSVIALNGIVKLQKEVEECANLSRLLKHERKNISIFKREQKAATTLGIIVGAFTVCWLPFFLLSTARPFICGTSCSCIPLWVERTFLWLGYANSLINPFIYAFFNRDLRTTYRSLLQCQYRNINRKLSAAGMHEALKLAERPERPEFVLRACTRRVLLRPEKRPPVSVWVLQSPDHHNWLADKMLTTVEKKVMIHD
5-hydroxytryptamine receptor 1E (Homo sapiens), sequence (P28566 whole entry): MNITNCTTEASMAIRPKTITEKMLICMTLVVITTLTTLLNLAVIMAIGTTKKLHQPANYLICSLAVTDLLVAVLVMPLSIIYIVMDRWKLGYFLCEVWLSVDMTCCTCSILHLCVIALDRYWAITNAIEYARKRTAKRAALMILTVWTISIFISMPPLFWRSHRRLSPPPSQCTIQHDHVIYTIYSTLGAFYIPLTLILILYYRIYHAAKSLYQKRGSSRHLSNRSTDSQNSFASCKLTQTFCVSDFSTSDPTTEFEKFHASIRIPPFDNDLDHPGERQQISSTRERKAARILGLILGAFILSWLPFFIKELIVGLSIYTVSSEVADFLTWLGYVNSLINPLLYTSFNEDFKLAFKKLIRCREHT
Alpha-1B adrenergic receptor, sequence (P35368 whole entry): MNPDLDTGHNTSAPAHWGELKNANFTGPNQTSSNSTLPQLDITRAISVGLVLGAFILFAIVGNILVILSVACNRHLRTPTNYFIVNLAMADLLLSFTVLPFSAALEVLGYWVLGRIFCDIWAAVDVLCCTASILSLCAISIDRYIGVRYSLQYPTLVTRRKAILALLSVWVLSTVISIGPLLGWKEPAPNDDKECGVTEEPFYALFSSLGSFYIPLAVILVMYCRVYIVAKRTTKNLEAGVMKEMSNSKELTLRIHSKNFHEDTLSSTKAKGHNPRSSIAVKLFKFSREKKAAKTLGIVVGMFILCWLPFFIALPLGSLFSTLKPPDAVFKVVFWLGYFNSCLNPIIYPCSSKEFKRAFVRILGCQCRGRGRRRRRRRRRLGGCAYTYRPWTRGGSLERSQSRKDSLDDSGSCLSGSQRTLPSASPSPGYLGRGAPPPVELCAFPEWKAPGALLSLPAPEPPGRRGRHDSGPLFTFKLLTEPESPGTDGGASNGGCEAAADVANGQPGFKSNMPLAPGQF
Alpha-2C adrenergic receptor, sequence (P18825 whole entry): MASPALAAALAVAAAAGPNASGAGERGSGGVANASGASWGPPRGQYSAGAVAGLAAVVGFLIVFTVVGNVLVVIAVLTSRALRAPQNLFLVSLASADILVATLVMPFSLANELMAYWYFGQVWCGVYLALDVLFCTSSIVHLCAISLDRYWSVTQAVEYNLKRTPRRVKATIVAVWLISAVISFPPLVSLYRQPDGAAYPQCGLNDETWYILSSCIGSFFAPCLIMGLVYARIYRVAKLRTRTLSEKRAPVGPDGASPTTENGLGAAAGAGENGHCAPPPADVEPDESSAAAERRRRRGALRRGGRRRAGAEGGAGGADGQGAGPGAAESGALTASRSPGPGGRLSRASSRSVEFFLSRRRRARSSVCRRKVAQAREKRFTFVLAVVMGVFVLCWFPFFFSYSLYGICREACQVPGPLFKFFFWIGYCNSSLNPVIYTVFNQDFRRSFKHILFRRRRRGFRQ
Sodium-dependent serotonin transporter, sequence (P31645 whole entry): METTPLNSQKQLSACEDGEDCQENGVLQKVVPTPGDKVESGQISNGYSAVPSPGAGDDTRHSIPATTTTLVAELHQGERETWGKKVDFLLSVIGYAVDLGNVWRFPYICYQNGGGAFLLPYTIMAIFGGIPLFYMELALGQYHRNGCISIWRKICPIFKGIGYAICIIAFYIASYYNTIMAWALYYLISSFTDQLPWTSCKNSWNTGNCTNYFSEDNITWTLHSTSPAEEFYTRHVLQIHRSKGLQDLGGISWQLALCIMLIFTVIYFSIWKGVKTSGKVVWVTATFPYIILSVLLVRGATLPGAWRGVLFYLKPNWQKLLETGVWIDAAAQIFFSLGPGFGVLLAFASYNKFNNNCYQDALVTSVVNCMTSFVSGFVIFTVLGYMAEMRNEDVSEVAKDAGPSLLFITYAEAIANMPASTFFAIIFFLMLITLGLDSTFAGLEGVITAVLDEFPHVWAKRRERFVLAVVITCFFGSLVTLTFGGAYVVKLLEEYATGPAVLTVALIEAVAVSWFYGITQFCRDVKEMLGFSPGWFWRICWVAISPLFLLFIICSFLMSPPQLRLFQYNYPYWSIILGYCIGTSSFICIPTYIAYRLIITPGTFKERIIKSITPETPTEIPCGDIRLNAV
Sodium-dependent dopamine transporter, sequence (Q01959 whole entry): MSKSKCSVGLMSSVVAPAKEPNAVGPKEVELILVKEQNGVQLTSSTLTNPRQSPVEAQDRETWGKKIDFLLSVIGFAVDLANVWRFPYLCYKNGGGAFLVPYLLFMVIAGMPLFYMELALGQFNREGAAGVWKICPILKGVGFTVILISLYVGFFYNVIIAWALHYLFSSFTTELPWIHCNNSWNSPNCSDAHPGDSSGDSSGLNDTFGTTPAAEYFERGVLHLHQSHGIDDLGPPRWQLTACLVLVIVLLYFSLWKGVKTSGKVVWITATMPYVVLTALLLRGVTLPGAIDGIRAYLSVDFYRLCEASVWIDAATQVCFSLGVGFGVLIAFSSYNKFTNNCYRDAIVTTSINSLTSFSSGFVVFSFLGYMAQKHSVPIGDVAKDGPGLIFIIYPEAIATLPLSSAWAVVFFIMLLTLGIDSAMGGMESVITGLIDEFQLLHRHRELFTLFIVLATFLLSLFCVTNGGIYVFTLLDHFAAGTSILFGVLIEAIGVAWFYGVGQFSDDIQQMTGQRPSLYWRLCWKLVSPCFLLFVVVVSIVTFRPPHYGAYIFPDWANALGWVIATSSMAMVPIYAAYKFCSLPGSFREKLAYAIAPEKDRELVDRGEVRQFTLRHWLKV
Kappa-type opioid receptor (Homo sapiens), sequence (P41145 whole entry): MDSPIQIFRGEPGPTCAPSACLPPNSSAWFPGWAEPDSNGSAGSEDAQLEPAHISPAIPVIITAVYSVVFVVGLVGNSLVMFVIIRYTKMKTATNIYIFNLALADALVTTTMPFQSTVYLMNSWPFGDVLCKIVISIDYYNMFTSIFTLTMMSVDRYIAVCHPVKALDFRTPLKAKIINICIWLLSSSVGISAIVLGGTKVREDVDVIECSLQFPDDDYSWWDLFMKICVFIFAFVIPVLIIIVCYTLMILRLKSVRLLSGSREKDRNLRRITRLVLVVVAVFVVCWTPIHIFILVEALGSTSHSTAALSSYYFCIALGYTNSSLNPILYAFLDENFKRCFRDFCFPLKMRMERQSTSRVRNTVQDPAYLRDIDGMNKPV
Alpha-1A adrenergic receptor (Homo sapiens), sequence (P35348 whole entry): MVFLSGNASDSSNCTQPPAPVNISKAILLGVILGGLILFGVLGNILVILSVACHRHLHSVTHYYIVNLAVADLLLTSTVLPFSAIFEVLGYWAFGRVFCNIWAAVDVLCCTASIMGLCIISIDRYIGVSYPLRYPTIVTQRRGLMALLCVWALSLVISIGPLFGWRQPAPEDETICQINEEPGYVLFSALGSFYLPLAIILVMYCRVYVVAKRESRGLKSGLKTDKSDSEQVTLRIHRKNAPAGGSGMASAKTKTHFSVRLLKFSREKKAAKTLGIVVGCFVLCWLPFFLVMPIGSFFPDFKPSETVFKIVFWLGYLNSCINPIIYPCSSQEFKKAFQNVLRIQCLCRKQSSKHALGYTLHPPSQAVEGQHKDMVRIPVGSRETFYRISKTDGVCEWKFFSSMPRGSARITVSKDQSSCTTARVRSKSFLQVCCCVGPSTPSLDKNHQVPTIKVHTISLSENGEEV
Histamine H3 receptor (Homo sapiens), sequence (Q9Y5N1 whole entry): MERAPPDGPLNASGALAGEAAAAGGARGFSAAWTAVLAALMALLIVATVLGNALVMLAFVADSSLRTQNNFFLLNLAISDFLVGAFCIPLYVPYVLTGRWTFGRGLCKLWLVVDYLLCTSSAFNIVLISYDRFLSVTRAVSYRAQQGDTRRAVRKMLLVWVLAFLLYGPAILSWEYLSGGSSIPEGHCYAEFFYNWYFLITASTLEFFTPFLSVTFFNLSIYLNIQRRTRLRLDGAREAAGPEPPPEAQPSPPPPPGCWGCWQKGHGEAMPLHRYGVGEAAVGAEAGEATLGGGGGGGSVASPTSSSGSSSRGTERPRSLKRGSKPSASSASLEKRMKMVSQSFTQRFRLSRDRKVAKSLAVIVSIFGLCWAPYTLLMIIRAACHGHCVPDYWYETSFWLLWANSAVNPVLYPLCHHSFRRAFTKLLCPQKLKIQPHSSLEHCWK

Structure (SMILES): COc1cc2c(cc1OC(C)C)C[C@H]1c3c(cc(OC)c(OC)c3-2)CCN1C
Ratio Ki (Homo sapiens [1]): 20
Ratio Ki (Homo sapiens [2]): 27
Ki [3]: 0.028 µM
Ki [4]: 0.563 µM
Ki [5]: 0.75 µM

Structure (SMILES): COc1cc2c(cc1O)C[C@H]1c3c(cc(OC)c(OC)c3-2)CCN1C
inhibition [6]: < 50%
inhibition [7]: < 50%
inhibition [8]: < 50%
inhibition (Sigma 2 receptor): < 50%
Ki [9]: > 0.95 µM
Ki [10]: > 0.95 µM
Ki [11]: > 0.95 µM
Ki [12]: > 0.95 µM
Ki (D(3) dopamine receptor): > 0.95 µM
Ki [13]: > 0.95 µM
Ki [14]: > 0.95 µM
Ki [15]: > 0.95 µM
Ratio Ki (Homo sapiens [1]): 16
inhibition [16]: < 50%
Ki (D(1A) dopamine receptor): 0.373 µM
Ki [3]: 0.02 µM
Ki [17]: 0.306 µM
Ki [18]: 0.566 µM
Ki [19]: 0.323 µM
Ki [4]: 0.314 µM
inhibition [20]: < 50%
inhibition [21]: < 50%
inhibition [22]: < 50%
inhibition [23]: < 50%
inhibition (Rattus norvegicus [24]): < 50%
inhibition [25]: < 50%
inhibition [26]: < 50%
inhibition [27]: < 50%
inhibition [28]: < 50%
inhibition (Rattus norvegicus [29]): < 50%
inhibition [30]: < 50%
inhibition [31]: < 50%
inhibition [32]: < 50%
inhibition [33]: < 50%
inhibition [34]: < 50%
inhibition [35]: < 50%
inhibition [36]: < 50%
inhibition [37]: < 50%
inhibition [38]: < 50%

Structure (SMILES): CCCC(C)Oc1cc2c(cc1OC)-c1c(OC)c(OC)cc3c1[C@H](C2)N(C)CC3 (stereo partly drawn)
Ratio Ki (Homo sapiens [1]): 5
Ratio Ki (Homo sapiens [2]): 5
Ratio Ki [39]: < 3
Ki [3]: 0.024 µM
Ki [4]: 0.117 µM
Ki [5]: 0.244 µM

Ratio Ki (Homo sapiens [1]): 3
Ratio Ki (Homo sapiens [2]): 11
Ratio Ki [39]: < 3
Ki [3]: 0.05 µM
Ki [4]: 0.163 µM
Ki [5]: 0.57 µM
Structure (SMILES): COc1cc2c(cc1OC1CCCCC1)C[C@H]1c3c(cc(OC)c(OC)c3-2)CCN1C

Structure (SMILES): C=CCOc1cc2c(cc1OC)-c1c(OC)c(OC)cc3c1[C@H](C2)N(C)CC3
Ratio Ki (Homo sapiens [1]): 18
Ratio Ki (Homo sapiens [2]): 18
Ki [3]: 0.02 µM
Ki [4]: 0.361 µM
Ki [5]: 0.383 µM

Ratio Ki (Homo sapiens [1]): 4
Ratio Ki (Homo sapiens [2]): 9
Ratio Ki [39]: 3
Ki [3]: 0.023 µM
Ki [4]: 0.092 µM
Ki [5]: 0.216 µM
Structure (SMILES): COc1cc2c(cc1OCc1ccccc1)C[C@H]1c3c(cc(OC)c(OC)c3-2)CCN1C

Structure (SMILES): CCCCCOc1cc2c(cc1OC)-c1c(OC)c(OC)cc3c1[C@H](C2)N(C)CC3
Ratio Ki (Homo sapiens [1]): 7
Ratio Ki (Homo sapiens [2]): 10
Ki [3]: 0.024 µM
Ki [4]: 0.179 µM
Ki [5]: 0.239 µM

Ratio Ki (Homo sapiens [1]): 4
Ratio Ki (Homo sapiens [2]): 12
Ratio Ki [39]: < 3
Ki [3]: 0.038 µM
Ki [4]: 0.152 µM
Ki [5]: 0.446 µM
Structure (SMILES): CCCCC(C)Oc1cc2c(cc1OC)-c1c(OC)c(OC)cc3c1[C@H](C2)N(C)CC3 (stereo partly drawn)
